Source: US20250019520A1, “RELIEF PRECURSORS WITH ENHANCED STABILITY” (XSYS Germany GmbH, priority 2023, published 2025)

Columns and labels:
[1] = Thermal melt stability: onset time of crosslinking, SIS-rubber based formulation; format: physicochemical
Protocol: The thermal melt stability was assessed by recording the melt viscosity during heating. Crosslinking of the sample was recorded as an increase in viscosity. Oscillatory rheological measurements were carried out using a Kinexus lab+rheometer (Malvern Instruments Ltd., UK) under isothermal (T=160° C.) conditions. Data was recorded using the corresponding software rSPACE version 1.76 (Malvern Instruments Ltd., UK). As measurement geometry, parallel plates with a diameter of 2.5 cm of the upper plate were chosen. As sample, a disc of a relief precursor with a diameter of 2.5 cm was used. Prior to measurement, any foils (e.g. the cover sheet) and mask layers were removed from the relief precursor. Measurements were carried out in oscillation single frequency mode. The frequency was set to 1 Hz. The gap between the parallel plates was set constant to the respective sample thickness. Data points were recorded every 15 s. The complex shear viscosity η* was monitored over time t. The “onset time of crosslinking” was identified as “the time when the difference quotient Δη*/Δt is ≥1 Pa, with Δt=15 s”. A higher onset time indicates a higher thermal stability and stability towards mechanical stress.
In this example, another trial formulation based on a SIS tri-block copolymer was used. […]

[2] = Kneading trials at 180° C., onset of crosslinking seen as increase in torque; format: physicochemical; conditions: kneading at 180° C. for 60 min, SBS binder plus stabilizer
Protocol: Kneading trials were carried out using a ThermoFisher Scientifc Haake kneading device equipped with a Haake PolyLab OS RheoDrive 7 control unit, a Haake Rheomix 600 OS heating and kneading chamber with Roller Rotors R600. The torque and the sample temperature were recorded using the software PolySoft, version 2.1.0.1. For the measurement, a temperature of 180° C. was applied. The measurement was carried out for 60 min, respectively. The components were added to the kneading device as solids and were allowed to be mixed in the kneading device.
In the given sample, the amount of stabilizer was varied in the range of 0 to 1.0 parts by weight and the excess was counterbalanced by the amount of binder, respectively.
An increase in torque indicated the onset of crosslinking of the SBS-rubber due to insufficient stabilization. Without additional stabilizer, an increase in torque was observed within the first 10 min of measurement time. With BHT as stabilizer, an increase in torque was detected after 28 min of heating at 180° C. With ascorbyl palmitate, the best result was achieved, where crosslinking was observed after 50 min.

[3] = Printing plate evaluation: halftone and tonal values at 146 lpi; conditions: difference of tonal value of 5% halftone at 146 lpi versus plate without additional stabilizer
Protocol: To obtain a cliché, the laser ablatable mask on the front side was imaged using a TfxX 20 laser (Flint Group Germany GmbH, Germany, rotational speed: 10 to 11 rounds/s, power: 35 W (100% intensity)). The relief precursor was exposed to UV light from the backside through the carrier foil for 20 to 40 s and from the front side through the mask layer for 15 min. During the exposure at room temperature (being around 18-25° C.), no active heating was present. As a result of the crosslinking reaction due to the exposure, the temperature of the plate rose to around 40° C. (machine type: Combi FIII (Flint Group Germany GmbH, Germany), UVA intensity […], UVA tube type: Philips TL 80 W/10-R). […]
In this example, the effect of the stabilizer on the tonal values of the resulting printing plates was assessed since conventional stabilizers can impact tonal values as they may hinder curing. […] The stabilizer impact on the tonal value was calculated as the difference of the tonal value of the 5% halftone at 146 lpi of a plate without any additional stabilizer compared to the respective tonal value of a plate comprising a stabilizer.

**Q.** For `CCCCCCCCCCCCCCCC(=O)OC[C@H](O)[C@H]1OC(=O)C(O)=C1O` [Ascorbyl palmitate], which “Effect on the onset time of crosslinking compared with an equimolar amount of BHT” value [1] is on record?
**A.** more than five times as high

**Q.** What about the Onset time t/min [2] of the same compound?
**A.** 50 min

**Q.** What about the “Stabilizer impact on tonal value” [3] of the same compound?
**A.** 0.8%
